Calls of active or inactive are those of the source. The rule behind the calls is not given here.
Tests used:
HepG2 = assay: cells; type: functional; conditions: Homo sapiens, time 48 hrs
Description: Antiproliferative activity against human HepG2 cells assessed as inhibition of cell proliferation incubated for 48 hrs by CCK8 assay

A549 [1] = assay: Antitumor activity against human A549 cells xenografted in BALB/c mouse assessed as tumor growth inhibition at high dose when administered intratumorally for 21 days relative to control; type: functional; conditions: route it(Intratumoral); time 21 day
[2] = target: T1, Class 1 histone deacetylase (Homo sapiens) (UniProt Q13547+O15379+Q92769+Q9BY41); assay: Inhibition of class 1 HDAC in human MCF7 cells assessed as increase in histone H4 acetylation at 10 uM measured after 8 hrs by Western blot analysis; type: cell-based
T1 sequence (O15379 whole entry, looked up): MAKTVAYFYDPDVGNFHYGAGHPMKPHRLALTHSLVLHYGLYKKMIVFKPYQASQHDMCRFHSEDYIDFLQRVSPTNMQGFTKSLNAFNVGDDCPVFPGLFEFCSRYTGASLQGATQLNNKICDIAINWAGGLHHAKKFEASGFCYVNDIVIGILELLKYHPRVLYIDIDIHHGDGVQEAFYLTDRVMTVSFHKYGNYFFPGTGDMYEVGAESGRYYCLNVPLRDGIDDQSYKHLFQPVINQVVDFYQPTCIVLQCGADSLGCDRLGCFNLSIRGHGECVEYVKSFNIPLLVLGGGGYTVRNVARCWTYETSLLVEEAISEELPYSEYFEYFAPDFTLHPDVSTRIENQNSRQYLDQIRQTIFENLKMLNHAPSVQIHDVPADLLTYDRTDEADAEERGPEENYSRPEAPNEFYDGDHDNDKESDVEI
T1 sequence (Q13547 whole entry, looked up): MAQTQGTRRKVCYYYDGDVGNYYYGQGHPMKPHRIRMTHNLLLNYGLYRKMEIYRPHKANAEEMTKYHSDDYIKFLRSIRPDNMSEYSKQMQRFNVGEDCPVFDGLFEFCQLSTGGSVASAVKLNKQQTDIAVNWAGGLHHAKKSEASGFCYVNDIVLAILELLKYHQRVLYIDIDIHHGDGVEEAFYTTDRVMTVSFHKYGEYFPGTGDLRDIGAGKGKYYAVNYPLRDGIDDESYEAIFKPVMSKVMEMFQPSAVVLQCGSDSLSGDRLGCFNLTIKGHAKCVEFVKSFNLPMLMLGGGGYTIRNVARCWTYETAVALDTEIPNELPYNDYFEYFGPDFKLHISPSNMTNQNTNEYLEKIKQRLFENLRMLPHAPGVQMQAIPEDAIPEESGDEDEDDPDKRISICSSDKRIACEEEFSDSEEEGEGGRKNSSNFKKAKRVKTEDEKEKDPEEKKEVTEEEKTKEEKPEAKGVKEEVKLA
T1 sequence (Q92769 whole entry, looked up): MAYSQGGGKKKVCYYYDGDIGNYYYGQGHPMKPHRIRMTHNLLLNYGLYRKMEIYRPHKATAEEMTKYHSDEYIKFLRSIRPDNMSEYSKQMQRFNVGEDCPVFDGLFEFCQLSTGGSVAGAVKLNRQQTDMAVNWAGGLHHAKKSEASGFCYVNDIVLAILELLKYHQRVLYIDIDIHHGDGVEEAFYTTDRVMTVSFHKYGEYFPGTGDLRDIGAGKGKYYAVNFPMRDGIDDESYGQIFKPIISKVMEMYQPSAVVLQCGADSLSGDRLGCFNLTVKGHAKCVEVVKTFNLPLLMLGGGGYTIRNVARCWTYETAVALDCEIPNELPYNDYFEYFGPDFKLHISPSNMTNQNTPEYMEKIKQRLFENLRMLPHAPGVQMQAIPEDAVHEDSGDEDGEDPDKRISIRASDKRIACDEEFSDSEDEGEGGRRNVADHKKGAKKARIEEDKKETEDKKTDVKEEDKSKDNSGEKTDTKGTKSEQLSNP
T1 sequence (Q9BY41 whole entry, looked up): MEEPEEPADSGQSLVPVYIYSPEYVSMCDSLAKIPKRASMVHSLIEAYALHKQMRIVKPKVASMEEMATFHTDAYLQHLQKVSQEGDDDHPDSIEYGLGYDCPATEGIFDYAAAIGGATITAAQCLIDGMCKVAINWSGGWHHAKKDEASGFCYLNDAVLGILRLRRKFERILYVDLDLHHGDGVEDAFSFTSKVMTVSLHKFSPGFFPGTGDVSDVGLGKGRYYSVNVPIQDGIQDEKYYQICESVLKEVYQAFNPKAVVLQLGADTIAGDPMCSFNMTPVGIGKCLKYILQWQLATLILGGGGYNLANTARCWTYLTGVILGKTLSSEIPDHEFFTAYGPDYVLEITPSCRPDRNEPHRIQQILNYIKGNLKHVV

[3] = target: T1, Class 1 histone deacetylase (Homo sapiens); assay: Inhibition of class 1 HDAC in human MCF7 cells assessed as increase in histone H3 acetylation at 10 uM measured after 8 hrs by Western blot analysis; type: cell-based
K562 [4] = assay: Induction of apoptosis in human K562 cells assessed as downregulation of Bcl-2 protein at 10 uM measured after 8 hrs by Western blot analysis; type: functional, cell-based
[5] = target: Histone deacetylase (Homo sapiens) (UniProt Q13547+O15379+Q9UBN7+Q92769+Q9UQL6+Q8WUI4+Q9BY41+Q96DB2+P56524+Q9UKV0+Q969S8); assay: Inhibition of HDAC in human HeLa nuclear extract at 1 uM using Boc-Lys(acetyl)-AMC as fluorogenic substrate measured after 1 hr by flourescence plate reader method relative to control; type: subcellular; conditions: Nucleus
Histone deacetylase 9 = Histone deacetylase 9 (Homo sapiens, UniProt Q9UKV0); assay: Inhibition of human C-terminal His-tagged HDAC9 (604 to 1066 residues) expressed in baculovirus infected Sf9 insect cells using Boc-Lys(acetyl)-AMC as fluorogenic substrate measured after 1 hr by flourescence plate reader method
K562 [6] = assay: Induction of apoptosis in human K562 cells assessed as increased cleaved caspase 9 at 10 uM measured after 8 hrs by Western blot analysis; type: functional, cell-based
[7] = Half life in human liver microsomes; type: ADME, Microsome
[8] = target: T1, Class 1 histone deacetylase (Homo sapiens); assay: Inhibition of class 1 HDAC in human A549 cells assessed as increase in histone H3/H4 acetylation measured after 24 hrs by Immunofluorescent assay; type: cell-based
[9] = target: T1, Class 1 histone deacetylase (Homo sapiens); assay: Inhibition of class 1 HDAC in human K562 cells assessed as increase in histone H4 acetylation at 10 uM measured after 8 hrs by Western blot analysis; type: cell-based
Histone deacetylase 2 = Histone deacetylase 2 (Homo sapiens, UniProt Q92769); assay: Inhibition of full length human HDAC2 using Boc-Lys(acetyl)-AMC as fluorogenic substrate measured after 1 hr by flourescence plate reader method
Chain of Histone deacetylase 2 (Q92769 whole entry): as the sequence (Q92769 whole entry, looked up) above

[10] = target: T2, Protein deacetylase HDAC6 (Homo sapiens) (UniProt Q9UBN7); assay: Inhibition of HDAC6 in human A549 cells assessed as increase in alpha tubulin acetylation at 10 uM measured after 8 hrs by Western blot analysis; type: cell-based
T2 sequence (whole entry): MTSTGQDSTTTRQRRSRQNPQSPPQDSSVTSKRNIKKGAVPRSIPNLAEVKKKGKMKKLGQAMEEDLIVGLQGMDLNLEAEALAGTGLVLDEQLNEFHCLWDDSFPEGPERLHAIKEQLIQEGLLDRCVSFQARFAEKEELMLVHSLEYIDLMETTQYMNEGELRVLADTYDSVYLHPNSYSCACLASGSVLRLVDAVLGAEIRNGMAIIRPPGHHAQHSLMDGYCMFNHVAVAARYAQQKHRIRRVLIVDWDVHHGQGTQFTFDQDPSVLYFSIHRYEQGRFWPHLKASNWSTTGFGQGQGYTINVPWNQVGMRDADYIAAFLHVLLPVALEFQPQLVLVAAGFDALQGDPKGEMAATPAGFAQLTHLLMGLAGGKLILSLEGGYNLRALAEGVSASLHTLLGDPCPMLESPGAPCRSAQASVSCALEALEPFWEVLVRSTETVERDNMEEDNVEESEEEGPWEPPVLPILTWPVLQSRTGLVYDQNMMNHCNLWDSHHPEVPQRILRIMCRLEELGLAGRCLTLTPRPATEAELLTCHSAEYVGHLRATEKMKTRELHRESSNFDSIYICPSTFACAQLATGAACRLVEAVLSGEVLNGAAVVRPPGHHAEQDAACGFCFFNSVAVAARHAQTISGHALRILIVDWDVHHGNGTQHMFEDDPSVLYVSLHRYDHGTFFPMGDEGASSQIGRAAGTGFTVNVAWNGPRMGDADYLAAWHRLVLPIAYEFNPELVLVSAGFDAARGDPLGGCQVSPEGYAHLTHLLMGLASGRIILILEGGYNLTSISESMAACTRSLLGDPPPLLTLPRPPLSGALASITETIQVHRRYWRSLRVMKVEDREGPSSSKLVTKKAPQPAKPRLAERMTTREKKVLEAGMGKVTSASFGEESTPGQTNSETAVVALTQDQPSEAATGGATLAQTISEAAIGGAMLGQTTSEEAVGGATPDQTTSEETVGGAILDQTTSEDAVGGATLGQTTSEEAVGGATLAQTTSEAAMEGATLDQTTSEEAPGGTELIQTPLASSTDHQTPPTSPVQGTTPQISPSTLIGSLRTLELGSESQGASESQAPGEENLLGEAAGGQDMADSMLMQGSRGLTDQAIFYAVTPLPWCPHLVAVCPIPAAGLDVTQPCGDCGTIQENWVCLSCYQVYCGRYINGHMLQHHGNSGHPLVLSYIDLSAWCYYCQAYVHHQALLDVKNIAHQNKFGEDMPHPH

[11] = target: T1, Class 1 histone deacetylase (Homo sapiens); assay: Inhibition of class 1 HDAC in human K562 cells assessed as increase in histone H3 acetylation at 10 uM measured after 8 hrs by Western blot analysis; type: cell-based
[12] = target: Histone deacetylase 3/Nuclear receptor corepressor 2 (HDAC3/NCoR2) (Homo sapiens, UniProt O15379); assay: Inhibition of C-terminal His-tagged recombinant human HDAC3 (1 to 428 residues)/N-terminal GST-tagged recombinant human NCoR2 (395 to 489 residues) co-expressed in baculovirus infected Sf9 cells using Boc-Lys(acetyl)-AMC as fluorogenic substrate measured after 1 hr by flourescence plate reader method
Chain of Histone deacetylase 3/Nuclear receptor corepressor 2 (HDAC3/NCoR2) (O15379 whole entry, the tested form may be a part): as the sequence (O15379 whole entry, looked up) above
Chain of Histone deacetylase 3/Nuclear receptor corepressor 2 (HDAC3/NCoR2) (Q9Y618 whole entry, further chain, the tested form may be a part): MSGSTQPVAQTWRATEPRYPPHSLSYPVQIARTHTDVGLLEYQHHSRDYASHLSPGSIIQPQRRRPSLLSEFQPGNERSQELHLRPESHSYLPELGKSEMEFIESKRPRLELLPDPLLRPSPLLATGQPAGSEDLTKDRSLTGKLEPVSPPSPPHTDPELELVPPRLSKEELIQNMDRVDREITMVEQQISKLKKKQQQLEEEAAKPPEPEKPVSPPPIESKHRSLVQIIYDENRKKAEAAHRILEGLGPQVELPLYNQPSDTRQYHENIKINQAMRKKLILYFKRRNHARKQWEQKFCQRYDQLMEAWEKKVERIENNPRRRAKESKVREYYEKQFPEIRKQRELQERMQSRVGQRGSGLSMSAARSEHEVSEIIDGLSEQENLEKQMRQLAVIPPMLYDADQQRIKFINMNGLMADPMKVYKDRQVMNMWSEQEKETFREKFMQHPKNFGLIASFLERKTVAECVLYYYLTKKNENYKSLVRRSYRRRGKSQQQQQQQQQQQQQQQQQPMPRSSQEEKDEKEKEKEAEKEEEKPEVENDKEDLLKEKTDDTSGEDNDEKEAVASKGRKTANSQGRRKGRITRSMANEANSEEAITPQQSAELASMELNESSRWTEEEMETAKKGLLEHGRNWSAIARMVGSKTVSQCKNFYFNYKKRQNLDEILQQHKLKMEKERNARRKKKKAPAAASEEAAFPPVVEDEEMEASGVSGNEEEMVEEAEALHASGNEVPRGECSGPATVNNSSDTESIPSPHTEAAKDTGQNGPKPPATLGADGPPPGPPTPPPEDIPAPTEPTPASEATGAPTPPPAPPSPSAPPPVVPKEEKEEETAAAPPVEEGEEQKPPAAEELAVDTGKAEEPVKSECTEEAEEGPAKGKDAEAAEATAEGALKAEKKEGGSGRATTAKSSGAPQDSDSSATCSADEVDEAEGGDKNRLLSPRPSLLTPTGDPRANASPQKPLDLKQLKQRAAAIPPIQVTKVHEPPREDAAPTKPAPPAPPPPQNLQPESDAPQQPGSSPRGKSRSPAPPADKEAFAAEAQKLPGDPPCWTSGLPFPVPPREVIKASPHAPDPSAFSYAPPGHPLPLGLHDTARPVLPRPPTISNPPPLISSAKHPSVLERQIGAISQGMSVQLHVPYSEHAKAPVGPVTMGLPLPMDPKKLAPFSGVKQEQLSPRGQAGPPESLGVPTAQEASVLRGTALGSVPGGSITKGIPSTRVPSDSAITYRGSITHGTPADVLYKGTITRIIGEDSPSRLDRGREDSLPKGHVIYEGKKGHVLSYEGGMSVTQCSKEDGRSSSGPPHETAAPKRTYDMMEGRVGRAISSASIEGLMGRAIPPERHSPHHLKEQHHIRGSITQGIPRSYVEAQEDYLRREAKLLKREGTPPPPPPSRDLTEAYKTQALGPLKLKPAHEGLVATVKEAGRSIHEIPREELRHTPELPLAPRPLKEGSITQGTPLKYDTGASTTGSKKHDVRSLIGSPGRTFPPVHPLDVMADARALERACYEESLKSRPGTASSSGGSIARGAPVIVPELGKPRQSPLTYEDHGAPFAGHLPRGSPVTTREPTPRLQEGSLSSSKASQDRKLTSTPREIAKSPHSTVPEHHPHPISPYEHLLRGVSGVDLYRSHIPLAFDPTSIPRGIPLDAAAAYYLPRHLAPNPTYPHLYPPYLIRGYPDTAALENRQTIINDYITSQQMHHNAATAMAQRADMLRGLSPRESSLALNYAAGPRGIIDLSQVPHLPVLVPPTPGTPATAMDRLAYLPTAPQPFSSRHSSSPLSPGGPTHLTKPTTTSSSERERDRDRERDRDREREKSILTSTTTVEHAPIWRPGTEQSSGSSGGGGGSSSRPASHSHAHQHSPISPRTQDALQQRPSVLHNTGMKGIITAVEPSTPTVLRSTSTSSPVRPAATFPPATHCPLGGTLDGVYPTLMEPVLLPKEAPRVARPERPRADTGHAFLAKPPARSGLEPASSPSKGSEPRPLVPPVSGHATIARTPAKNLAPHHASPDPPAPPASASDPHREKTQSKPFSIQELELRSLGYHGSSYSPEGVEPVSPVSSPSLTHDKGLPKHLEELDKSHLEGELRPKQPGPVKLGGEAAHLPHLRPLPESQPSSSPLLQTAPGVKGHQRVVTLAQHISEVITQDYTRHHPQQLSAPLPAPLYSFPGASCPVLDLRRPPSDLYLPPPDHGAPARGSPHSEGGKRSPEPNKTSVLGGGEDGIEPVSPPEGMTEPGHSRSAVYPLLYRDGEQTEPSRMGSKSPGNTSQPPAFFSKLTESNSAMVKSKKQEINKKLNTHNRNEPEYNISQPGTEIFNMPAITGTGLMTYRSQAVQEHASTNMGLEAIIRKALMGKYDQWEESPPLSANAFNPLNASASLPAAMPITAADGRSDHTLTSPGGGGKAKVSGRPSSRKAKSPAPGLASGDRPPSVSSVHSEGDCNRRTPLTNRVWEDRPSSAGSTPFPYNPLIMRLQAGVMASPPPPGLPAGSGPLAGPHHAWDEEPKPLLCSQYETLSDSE

MCF7 = assay: cells; type: functional; conditions: Homo sapiens, time 48 hrs
Description: Antiproliferative activity against human MCF-7 cells assessed as inhibition of cell proliferation incubated for 48 hrs by CCK8 assay

[13] = Half life in mouse liver microsomes; type: ADME, Microsome
HeLa = assay: cells; type: functional; conditions: Homo sapiens, time 48 hrs
Description: Antiproliferative activity against human HeLa cells assessed as inhibition of cell proliferation incubated for 48 hrs by CCK8 assay

Histone deacetylase 4 = Histone deacetylase 4 (Homo sapiens, UniProt P56524); assay: Inhibition of human HDAC4 using Boc-Lys(acetyl)-AMC as fluorogenic substrate measured after 1 hr by flourescence plate reader method
[14] = target: T2, Protein deacetylase HDAC6 (Homo sapiens); assay: Inhibition of HDAC6 in human MCF7 cells assessed as increase in alpha tubulin acetylation at 10 uM measured after 8 hrs by Western blot analysis; type: cell-based
[15] = target: T2, Protein deacetylase HDAC6 (Homo sapiens); assay: Inhibition of HDAC6 in human A549 cells assessed as increase in alpha tubulin acetylation measured after 24 hrs by Immunofluorescent assay; type: cell-based
K562 [16] = assay: Induction of apoptosis in human K562 cells assessed as increased cleaved caspase 3 at 10 uM measured after 8 hrs by Western blot analysis; type: functional, cell-based
K562 [17] = assay: cells; type: functional; conditions: Homo sapiens, time 48 hrs
Description: Antiproliferative activity against human K562 cells assessed as inhibition of cell proliferation incubated for 48 hrs by CCK8 assay

A549 [18] = assay: cells; type: functional; conditions: Homo sapiens, time 48 hrs
Description: Antiproliferative activity against human A549 cells assessed as inhibition of cell proliferation incubated for 48 hrs by CCK8 assay

[19] = Acute toxicity in BALB/c mouse assessed as effect on normal behaviour at up to 2000 mg/kg, po; type: organism-based; conditions: in vivo

Row | SMILES | GI50 (HepG2) [µM] | inhibition [2] | inhibition [3] | inhibition [5] [%] | IC50 (Histone deacetylase 9) [µM] | half-life [7] [min] | inhibition [9] | IC50 (Histone deacetylase 2) [µM] | inhibition [11] | IC50 [12] [µM] | GI50 (MCF7) [µM] | half-life [13] [min] | GI50 (HeLa) [µM] | IC50 (Histone deacetylase 4) [µM] | inhibition [14] | GI50 (K562 [17]) [µM] | GI50 (A549 [18]) [µM] | further results
1 | O=C(CCCSC[C@H](NC(=O)c1ccccc1)C(=O)Nc1ccccc1)NO | 6.2 | Active | Active | 80 | > 0.2 | 34.8 | Active | > 0.2 | Active | 0.126 | 3.7 | 22.6 | 4.1 | > 0.2 | Active | 1.4 | 4.7 | TGI (A549 [1]): 72%; Activity (K562 [4]): Active; Activity (K562 [6]): Active; inhibition [8]: Dose-dependent effect; inhibition [10]: Active; inhibition [15]: Dose-dependent effect; Activity (K562 [16]): Active; Activity [19]: Non-Toxic
2 | O=C(CCCSC[C@H](NC(=O)OCc1ccccc1)C(=O)Nc1cccc2ccccc12)NO | 4.5 | Active | Active | 83 | > 0.2 | 3.96 | Active | > 0.2 | Active | 0.0693 | 4.9 | < 1 | 4.3 | > 0.2 | Active | 2 | 5.3 | –
3 | O=C(CCCSC[C@H](NC(=O)OCc1ccccc1)C(=O)Nc1ccccc1)NO | 7.3 | Active | Active | 84 | > 0.2 | – | Active | > 0.2 | Active | 0.108 | 4.7 | – | 3.8 | > 0.2 | Active | 1.7 | 3.5 | –

— ChEMBL document CHEMBL5055644, “Cysteine derivatives as acetyl lysine mimics to inhibit zinc-dependent histone deacetylases for treating cancer” (Eur J Med Chem, 2021)
